Assay results taken from ChEMBL document CHEMBL5465560, “Selectivity Literature for EUbOPEN Chemogenomic Library” (2024).

Assays:
[1] = biological target: Serine/threonine-protein kinase pim-1 (Homo sapiens, UniProt P11309); experiment: Selectivity interaction (Kinase panel (literature)) EUB0001199aCl PIM1; conditions: at 1 µM
[2] = biological target: Mitogen-activated protein kinase kinase kinase 11 (Homo sapiens) (UniProt Q16584); experiment: Selectivity interaction (KinomeScan (DiscoverX)) EUB0000618a MAP3K11; conditions: at 10 µM
[3] = biological target: Vascular endothelial growth factor receptor 3 (Homo sapiens, UniProt P35916); experiment: Selectivity interaction (KinomeScan (DiscoverX)) EUB0000618a FLT4; conditions: at 10 µM
[4] = biological target: Cyclin-dependent kinase 16 (Homo sapiens) (UniProt Q00536); experiment: Selectivity interaction (KinomeScan (DiscoverX)) EUB0000607a CDK16; conditions: at 10 µM
[5] = biological target: T1, Serine/threonine-protein kinase TAO3 (Homo sapiens) (UniProt Q9H2K8); experiment: Selectivity interaction (KinomeScan (DiscoverX)) EUB0000045b TAOK3
T1 sequence (whole entry): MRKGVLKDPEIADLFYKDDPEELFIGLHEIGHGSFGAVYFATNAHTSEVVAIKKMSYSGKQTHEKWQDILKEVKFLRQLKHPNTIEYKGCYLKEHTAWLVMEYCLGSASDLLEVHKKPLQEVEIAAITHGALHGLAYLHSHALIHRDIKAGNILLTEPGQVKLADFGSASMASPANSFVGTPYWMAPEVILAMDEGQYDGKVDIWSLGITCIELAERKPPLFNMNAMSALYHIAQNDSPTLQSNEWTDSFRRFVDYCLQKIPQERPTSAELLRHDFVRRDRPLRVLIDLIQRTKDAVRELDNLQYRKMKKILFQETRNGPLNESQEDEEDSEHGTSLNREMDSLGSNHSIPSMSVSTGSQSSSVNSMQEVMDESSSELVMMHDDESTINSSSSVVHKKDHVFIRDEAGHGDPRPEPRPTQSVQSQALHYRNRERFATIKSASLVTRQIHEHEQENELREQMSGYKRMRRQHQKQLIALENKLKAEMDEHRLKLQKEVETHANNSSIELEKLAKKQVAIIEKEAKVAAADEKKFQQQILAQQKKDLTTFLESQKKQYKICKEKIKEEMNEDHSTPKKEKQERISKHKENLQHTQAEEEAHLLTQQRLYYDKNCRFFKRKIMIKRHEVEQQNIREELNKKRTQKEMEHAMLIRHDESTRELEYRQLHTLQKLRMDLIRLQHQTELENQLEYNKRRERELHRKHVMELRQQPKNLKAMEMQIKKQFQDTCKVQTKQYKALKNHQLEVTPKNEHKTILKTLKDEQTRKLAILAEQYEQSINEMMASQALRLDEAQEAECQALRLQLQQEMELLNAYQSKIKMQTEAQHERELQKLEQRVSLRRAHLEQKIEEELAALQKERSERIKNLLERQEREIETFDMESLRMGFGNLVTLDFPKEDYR

[6] = test system: Mast/stem cell growth factor receptor Kit (Homo sapiens), P10721 [V654A]; experiment: (§1) Selectivity interaction (ProQinase) EUB0000171b KIT
[7] = test system: Mast/stem cell growth factor receptor Kit (Homo sapiens), P10721 [A829P]; experiment: as §1
[8] = test system: Mast/stem cell growth factor receptor Kit (Homo sapiens), P10721 [D816H]; experiment: as §1
[9] = test system: Mast/stem cell growth factor receptor Kit (Homo sapiens), P10721 [V559D,V654A]; experiment: as §1
[10] = test system: Mast/stem cell growth factor receptor Kit (Homo sapiens), P10721 [V559D]; experiment: as §1
[11] = biological target: Mast/stem cell growth factor receptor Kit (Homo sapiens, UniProt P10721); experiment: as §1
[12] = test system: Mast/stem cell growth factor receptor Kit (Homo sapiens), P10721 [D816V]; experiment: as §1
[13] = test system: Mast/stem cell growth factor receptor Kit (Homo sapiens), P10721 [V559D,T670I]; experiment: as §1
[14] = biological target: T2, Prostaglandin G/H synthase 2 (Homo sapiens) (UniProt P35354); experiment: Selectivity interaction (Panel of kinases, GPCRs, ion channels and transporters (enzymatic assay)) EUB0000223bCl PTGS2
T2 sequence (whole entry): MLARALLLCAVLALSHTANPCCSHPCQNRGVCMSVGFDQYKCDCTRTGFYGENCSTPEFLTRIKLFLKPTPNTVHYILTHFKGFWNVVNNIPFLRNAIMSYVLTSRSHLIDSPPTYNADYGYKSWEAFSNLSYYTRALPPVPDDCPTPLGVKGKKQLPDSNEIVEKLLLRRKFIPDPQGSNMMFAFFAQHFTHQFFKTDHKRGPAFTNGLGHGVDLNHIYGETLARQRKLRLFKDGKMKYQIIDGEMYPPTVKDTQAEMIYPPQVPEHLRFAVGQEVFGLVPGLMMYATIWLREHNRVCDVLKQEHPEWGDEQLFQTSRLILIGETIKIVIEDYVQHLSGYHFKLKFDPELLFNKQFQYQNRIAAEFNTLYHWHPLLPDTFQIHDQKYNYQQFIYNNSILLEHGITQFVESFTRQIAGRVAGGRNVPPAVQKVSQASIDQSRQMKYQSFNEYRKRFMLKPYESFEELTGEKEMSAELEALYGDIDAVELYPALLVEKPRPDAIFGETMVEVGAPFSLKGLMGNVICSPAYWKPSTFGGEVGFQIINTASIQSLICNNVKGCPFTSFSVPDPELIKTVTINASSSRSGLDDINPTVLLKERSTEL

[15] = biological target: T3, Muscarinic acetylcholine receptor M2 (Homo sapiens) (UniProt P08172); experiment: Selectivity interaction (Panel of kinases, GPCRs, ion channels and transporters (enzymatic assay)) EUB0000223bCl CHRM2
T3 sequence (whole entry): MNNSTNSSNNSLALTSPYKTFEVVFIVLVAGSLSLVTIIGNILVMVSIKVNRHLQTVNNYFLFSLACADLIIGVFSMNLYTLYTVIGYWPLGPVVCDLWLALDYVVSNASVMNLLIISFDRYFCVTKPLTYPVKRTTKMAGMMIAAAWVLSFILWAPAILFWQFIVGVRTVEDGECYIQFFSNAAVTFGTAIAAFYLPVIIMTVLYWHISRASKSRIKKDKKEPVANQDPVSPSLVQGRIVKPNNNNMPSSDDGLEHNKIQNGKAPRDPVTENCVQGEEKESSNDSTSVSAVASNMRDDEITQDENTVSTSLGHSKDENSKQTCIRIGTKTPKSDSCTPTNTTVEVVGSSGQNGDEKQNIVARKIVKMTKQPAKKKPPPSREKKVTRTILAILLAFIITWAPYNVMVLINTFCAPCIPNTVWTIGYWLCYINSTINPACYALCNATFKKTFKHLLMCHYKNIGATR

[16] = biological target: Macrophage-stimulating protein receptor (Homo sapiens, UniProt Q04912); experiment: Selectivity interaction (KinomeScan (DiscoverX)) EUB0000695a MST1R; conditions: at 100 nM
Macrophage-stimulating protein receptor, sequence (Q04912 25-304 limits assumed): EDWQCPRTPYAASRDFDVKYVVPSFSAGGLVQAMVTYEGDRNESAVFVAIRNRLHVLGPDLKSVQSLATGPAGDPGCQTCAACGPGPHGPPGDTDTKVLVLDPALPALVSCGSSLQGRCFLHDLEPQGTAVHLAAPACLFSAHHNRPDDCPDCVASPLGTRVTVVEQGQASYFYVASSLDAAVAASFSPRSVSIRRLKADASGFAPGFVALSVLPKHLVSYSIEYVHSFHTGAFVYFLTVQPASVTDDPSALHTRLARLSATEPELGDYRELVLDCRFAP
Macrophage-stimulating protein receptor, sequence (Q04912 310-1400 limits assumed): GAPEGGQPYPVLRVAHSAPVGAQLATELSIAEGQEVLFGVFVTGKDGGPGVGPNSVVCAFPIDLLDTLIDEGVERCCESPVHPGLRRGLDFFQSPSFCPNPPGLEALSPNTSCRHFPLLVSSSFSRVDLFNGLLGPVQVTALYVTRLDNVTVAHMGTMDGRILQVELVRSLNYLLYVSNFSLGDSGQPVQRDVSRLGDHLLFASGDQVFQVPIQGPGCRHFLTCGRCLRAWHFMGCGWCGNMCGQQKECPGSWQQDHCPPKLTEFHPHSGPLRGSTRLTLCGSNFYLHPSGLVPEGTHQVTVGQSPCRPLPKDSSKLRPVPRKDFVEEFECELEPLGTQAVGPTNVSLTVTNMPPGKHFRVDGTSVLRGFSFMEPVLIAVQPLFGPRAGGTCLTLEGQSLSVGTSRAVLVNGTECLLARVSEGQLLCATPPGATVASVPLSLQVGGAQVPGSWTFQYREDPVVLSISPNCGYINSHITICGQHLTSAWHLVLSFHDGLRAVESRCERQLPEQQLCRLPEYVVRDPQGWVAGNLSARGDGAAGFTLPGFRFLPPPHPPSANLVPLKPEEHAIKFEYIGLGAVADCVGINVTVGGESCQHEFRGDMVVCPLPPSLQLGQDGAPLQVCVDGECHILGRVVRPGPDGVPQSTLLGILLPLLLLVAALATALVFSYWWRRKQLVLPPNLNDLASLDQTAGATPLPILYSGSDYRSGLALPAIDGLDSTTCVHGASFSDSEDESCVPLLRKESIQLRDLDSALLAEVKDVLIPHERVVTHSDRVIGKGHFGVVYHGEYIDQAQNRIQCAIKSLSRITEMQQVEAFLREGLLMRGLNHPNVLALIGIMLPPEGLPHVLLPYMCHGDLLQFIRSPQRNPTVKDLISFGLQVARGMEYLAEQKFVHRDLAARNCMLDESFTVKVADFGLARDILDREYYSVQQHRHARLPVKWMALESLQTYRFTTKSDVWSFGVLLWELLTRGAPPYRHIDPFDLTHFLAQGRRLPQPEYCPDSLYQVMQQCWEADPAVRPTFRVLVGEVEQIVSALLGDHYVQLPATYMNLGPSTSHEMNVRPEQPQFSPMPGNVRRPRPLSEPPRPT

Mast/stem cell growth factor receptor Kit (Homo sapiens), P10721 [V559D], sequence (P10721 whole entry V559D): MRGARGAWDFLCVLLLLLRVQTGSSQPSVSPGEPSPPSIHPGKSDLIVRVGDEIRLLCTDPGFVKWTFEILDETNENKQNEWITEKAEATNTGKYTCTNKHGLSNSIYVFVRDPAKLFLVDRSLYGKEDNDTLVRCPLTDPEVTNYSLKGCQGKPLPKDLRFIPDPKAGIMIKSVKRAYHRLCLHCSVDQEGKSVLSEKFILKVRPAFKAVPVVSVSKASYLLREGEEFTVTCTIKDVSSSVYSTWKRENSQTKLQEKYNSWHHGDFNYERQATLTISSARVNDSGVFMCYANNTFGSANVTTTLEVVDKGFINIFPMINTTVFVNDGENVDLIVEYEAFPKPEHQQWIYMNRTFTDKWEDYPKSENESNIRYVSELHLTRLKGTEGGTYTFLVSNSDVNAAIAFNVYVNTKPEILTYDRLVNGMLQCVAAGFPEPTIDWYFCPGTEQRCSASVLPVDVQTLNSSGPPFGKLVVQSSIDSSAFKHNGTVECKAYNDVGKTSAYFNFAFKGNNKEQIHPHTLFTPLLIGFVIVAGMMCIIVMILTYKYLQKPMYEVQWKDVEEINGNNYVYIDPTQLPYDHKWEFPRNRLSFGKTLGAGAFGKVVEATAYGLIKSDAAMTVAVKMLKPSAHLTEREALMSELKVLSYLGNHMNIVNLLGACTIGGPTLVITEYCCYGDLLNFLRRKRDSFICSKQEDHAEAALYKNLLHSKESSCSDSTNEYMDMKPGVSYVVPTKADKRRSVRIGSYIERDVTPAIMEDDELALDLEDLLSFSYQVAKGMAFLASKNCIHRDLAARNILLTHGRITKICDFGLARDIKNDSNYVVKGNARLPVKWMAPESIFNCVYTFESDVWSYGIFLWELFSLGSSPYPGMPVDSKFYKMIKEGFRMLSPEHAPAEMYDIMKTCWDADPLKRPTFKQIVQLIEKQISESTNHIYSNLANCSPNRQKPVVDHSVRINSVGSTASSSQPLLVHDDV
Mast/stem cell growth factor receptor Kit (Homo sapiens), P10721 [D816H], sequence (P10721 whole entry D816H): as the sequence (P10721 whole entry V559D) above, with D559V, D816H counted along it
Mast/stem cell growth factor receptor Kit (Homo sapiens), P10721 [D816V], sequence (P10721 whole entry D816V): as the sequence (P10721 whole entry V559D) above, with D559V, D816V counted along it
Mast/stem cell growth factor receptor Kit (Homo sapiens), P10721 [A829P], sequence (P10721 whole entry A829P): as the sequence (P10721 whole entry V559D) above, with D559V, A829P counted along it
Mast/stem cell growth factor receptor Kit, sequence (P10721 whole entry): as the sequence (P10721 whole entry V559D) above, with D559V counted along it
Mast/stem cell growth factor receptor Kit (Homo sapiens), P10721 [V654A], sequence (P10721 whole entry V654A): as the sequence (P10721 whole entry V559D) above, with D559V, V654A counted along it
Mast/stem cell growth factor receptor Kit (Homo sapiens), P10721 [V559D,T670I], sequence (P10721 whole entry V559D/T670I): as the sequence (P10721 whole entry V559D) above, with T670I counted along it
Mast/stem cell growth factor receptor Kit (Homo sapiens), P10721 [V559D,V654A], sequence (P10721 whole entry V559D/V654A): as the sequence (P10721 whole entry V559D) above, with V654A counted along it
Serine/threonine-protein kinase pim-1, sequence (P11309 whole entry, looked up): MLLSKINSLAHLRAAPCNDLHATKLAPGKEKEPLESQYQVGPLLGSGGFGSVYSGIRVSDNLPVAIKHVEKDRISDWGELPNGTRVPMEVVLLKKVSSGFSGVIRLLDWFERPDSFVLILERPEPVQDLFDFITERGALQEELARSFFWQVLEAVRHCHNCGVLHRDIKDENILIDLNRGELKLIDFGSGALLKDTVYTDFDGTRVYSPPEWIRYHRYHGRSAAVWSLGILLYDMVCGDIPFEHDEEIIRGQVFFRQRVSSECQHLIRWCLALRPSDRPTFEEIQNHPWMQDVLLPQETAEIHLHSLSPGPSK
Cyclin-dependent kinase 16 (Homo sapiens), sequence (Q00536 whole entry): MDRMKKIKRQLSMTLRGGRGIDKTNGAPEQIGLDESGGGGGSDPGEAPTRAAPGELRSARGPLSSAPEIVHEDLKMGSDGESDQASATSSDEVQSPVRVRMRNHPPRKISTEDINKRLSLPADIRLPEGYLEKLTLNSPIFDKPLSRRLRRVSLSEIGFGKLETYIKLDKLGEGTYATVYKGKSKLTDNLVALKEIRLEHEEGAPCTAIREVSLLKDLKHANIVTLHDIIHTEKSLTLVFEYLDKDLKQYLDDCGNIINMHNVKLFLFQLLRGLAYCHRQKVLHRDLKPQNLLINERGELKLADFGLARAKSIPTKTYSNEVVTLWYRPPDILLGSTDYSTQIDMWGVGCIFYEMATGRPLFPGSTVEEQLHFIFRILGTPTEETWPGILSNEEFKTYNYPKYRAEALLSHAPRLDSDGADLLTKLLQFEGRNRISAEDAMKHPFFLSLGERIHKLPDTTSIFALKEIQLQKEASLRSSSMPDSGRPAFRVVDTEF
Mitogen-activated protein kinase kinase kinase 11 (Homo sapiens), sequence (Q16584 whole entry, looked up): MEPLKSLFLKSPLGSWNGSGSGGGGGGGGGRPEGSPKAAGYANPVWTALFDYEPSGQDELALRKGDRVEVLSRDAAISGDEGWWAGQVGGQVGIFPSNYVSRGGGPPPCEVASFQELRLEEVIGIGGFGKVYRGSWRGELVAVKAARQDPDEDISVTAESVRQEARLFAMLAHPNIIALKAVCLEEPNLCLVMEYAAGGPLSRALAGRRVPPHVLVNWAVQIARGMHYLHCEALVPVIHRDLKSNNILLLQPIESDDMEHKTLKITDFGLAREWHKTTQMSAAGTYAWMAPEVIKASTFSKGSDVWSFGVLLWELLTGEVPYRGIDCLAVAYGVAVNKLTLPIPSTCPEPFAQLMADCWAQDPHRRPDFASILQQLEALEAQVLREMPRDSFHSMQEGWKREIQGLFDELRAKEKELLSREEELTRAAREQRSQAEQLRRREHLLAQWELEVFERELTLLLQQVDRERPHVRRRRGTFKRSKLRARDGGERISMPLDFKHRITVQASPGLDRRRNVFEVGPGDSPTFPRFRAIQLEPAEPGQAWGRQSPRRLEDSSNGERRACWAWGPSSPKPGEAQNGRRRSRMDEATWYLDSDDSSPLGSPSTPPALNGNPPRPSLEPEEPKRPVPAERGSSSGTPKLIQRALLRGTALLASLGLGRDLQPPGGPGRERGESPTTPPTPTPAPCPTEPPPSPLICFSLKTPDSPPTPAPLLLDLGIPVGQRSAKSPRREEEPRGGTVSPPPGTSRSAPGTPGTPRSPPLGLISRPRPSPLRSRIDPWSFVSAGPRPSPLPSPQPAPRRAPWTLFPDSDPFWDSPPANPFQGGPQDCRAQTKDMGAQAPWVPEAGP

CN1Cc2nccc(-c3cn(C)nc3-c3ccc(F)cc3)c2C1=O
% of inhibition [1]: 4%

O[C@H]1CC[C@H](Nc2ncc3nc(Nc4c(F)cc(F)cc4F)n([C@H]4CCOC4)c3n2)CC1
% of control [2]: 100%
% of control [3]: 55%

CNC(=O)Nc1ccc(-c2nc(N3CC4CCC(C3)O4)c3cnn(C4CCC5(CC4)OCCO5)c3n2)cc1
% of control [4]: 100%

C=CC(=O)Nc1cc(-n2c(=O)ccc3cnc4ccc(-c5ccc(NS(C)(=O)=O)cc5)cc4c32)ccc1C
% of control ([5]; at 1 µM): 100%
% of control ([5]; at 10 µM): 100%

C=CC(=O)Nc1cccc(C(=O)Nc2ccc(Nc3cc(-c4[nH]c(SC)nc4C)ccn3)cc2)c1
% of control ([6]; at 1 µM): 103%
% of control ([6]; at 5 µM): 80%
% of control ([7]; at 1 µM): 68%
% of control ([7]; at 5 µM): 75%
% of control ([8]; at 1 µM): 91%
% of control ([8]; at 5 µM): 66%
% of control ([9]; at 1 µM): 94%
% of control ([9]; at 5 µM): 85%
% of control ([10]; at 1 µM): 102%
% of control ([10]; at 5 µM): 94%
% of control ([11]; at 1 µM): 98%
% of control ([11]; at 5 µM): 101%
% of control ([12]; at 1 µM): 87%
% of control ([12]; at 5 µM): 55%
% of control ([13]; at 1 µM): 96%
% of control ([13]; at 5 µM): 77%

COc1cc(C(=O)N2CC[C@@H](O)[C@@H](N)C2)cc2nc(-c3cc4ccccc4n3CC3CC3)n(C)c12
pXC50 [14]: < 4 M
pXC50 [15]: < 4.8 M

Cc1cc(F)c(C(=O)Nc2cccc(-c3nncn3C(C)C)n2)cc1-n1cnc(C2CC2)c1
% of control [16]: 100%
